Results taken from PubChem BioAssay AID248 (DTP/NCI, 2004).
Values joined by “and” are separate entries in the source; they are usually repeats but may differ in a detail not shown here. Equal entries are not always repeated. Toxic doses and inconclusive results are not listed.

System: L1210 leukemia ip in BDF1 mice, survival T/C
Test: NCI In Vivo Anticancer Drug Screen. Data for tumor model L1210 Leukemia (intraperitoneal) in B6D2F1 (BDF1) mice
Conditions: higher = longer survival
Outline: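 Transplantable tumor model; survival measured in treated vs vehicle control mice. Value = treated/control.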

[1] = endpoint: mean survival time, dose: 100.0 mg/kg/injection, schedule: Q04DX003 (ip), vehicle: saline with Tween-80
[2] = endpoint: mean survival time, dose: 200.0 mg/kg/injection, schedule: Q04DX003 (ip), vehicle: saline with Tween-80

CO[C@H](C(=O)[C@@H](O)[C@@H](C)O)[C@@H]1Cc2cc3cc(OC4CC(OC5CC(O)C(O)C(C)O5)C(O)C(C)O4)c(C)c(O)c3c(O)c2C(=O)[C@H]1OC1CC(OC2CC(OC3CC(C)(O)C(O)C(C)O3)C(O)C(C)O2)C(O)C(C)O1 (stereo partly drawn)
T/C (endpoint: mean survival time, dose: 0.13 mg/kg/injection, schedule: Q01DX001 (iv), vehicle: water): 86 % of control
T/C (endpoint: mean survival time, dose: 0.15 mg/kg/injection, schedule: Q01DX015 (ip), vehicle: saline): 93 % of control
T/C (endpoint: mean survival time, dose: 0.25 mg/kg/injection, schedule: Q01DX001 (ip), vehicle: water): 104 % of control
T/C (endpoint: mean survival time, dose: 0.25 mg/kg/injection, schedule: Q01DX001 (iv), vehicle: water): 96 % of control
T/C (endpoint: mean survival time, dose: 0.25 mg/kg/injection, schedule: Q01DX Z (ip), vehicle: saline): 98 % of control
T/C (endpoint: mean survival time, dose: 0.31 mg/kg/injection, schedule: Q01DX015 (ip), vehicle: saline): 104 % of control
T/C (endpoint: mean survival time, dose: 0.37 mg/kg/injection, schedule: Q01DX001 (ip), vehicle: water): 98 % of control
T/C (endpoint: mean survival time, dose: 0.5 mg/kg/injection, schedule: Q01DX001 (ip), vehicle: saline): 98 % of control and 101 % of control
T/C (endpoint: mean survival time, dose: 0.5 mg/kg/injection, schedule: Q01DX001 (ip), vehicle: water): 95 % of control and 97 % of control
T/C (endpoint: mean survival time, dose: 0.5 mg/kg/injection, schedule: Q01DX001 (iv), vehicle: water): 100 % of control
T/C (endpoint: mean survival time, dose: 0.5 mg/kg/injection, schedule: Q01DX Z (ip), vehicle: saline): 107 % of control
T/C (endpoint: mean survival time, dose: 0.62 mg/kg/injection, schedule: Q01DX015 (ip), vehicle: saline): 102 % of control
T/C (endpoint: mean survival time, dose: 1.0 mg/kg/injection, schedule: Q01DX001 (ip), vehicle: saline): 97 % of control
T/C (endpoint: mean survival time, dose: 1.0 mg/kg/injection, schedule: Q01DX Z (ip), vehicle: saline): 103 % of control
T/C (endpoint: mean survival time, dose: 1.25 mg/kg/injection, schedule: Q01DX001 (ip), vehicle: saline): 109 % of control
T/C (endpoint: mean survival time, dose: 1.25 mg/kg/injection, schedule: Q01DX015 (ip), vehicle: saline): 96 % of control
T/C (endpoint: mean survival time, dose: 2.0 mg/kg/injection, schedule: Q01DX001 (ip), vehicle: saline): 101 % of control
T/C (endpoint: mean survival time, dose: 2.5 mg/kg/injection, schedule: Q01DX001 (ip), vehicle: saline): 109 % of control
T/C (endpoint: mean survival time, dose: 10.0 mg/kg/injection, schedule: Q01DX001 (ip), vehicle: saline): 91 % of control
T/C (endpoint: mean survival time, dose: 1.5 micrograms/kg/injection, schedule: Q01DX009 (ip), vehicle: saline): 101 % of control and 114 % of control
T/C (endpoint: mean survival time, dose: 3.0 micrograms/kg/injection, schedule: Q01DX009 (ip), vehicle: saline): 100 % of control and 104 % of control
T/C (endpoint: mean survival time, dose: 6.0 micrograms/kg/injection, schedule: Q01DX009 (ip), vehicle: saline): 95 % of control and 97 % of control
T/C (endpoint: mean survival time, dose: 12.0 micrograms/kg/injection, schedule: Q01DX009 (ip), vehicle: saline): 94 % of control and 95 % of control
T/C (endpoint: mean survival time, dose: 12.0 micrograms/kg/injection, schedule: Q04DX002 (ip), vehicle: saline): 97 % of control and 108 % of control
T/C (endpoint: mean survival time, dose: 22.0 micrograms/kg/injection, schedule: Q01DX Z (ip), vehicle: water): 97 % of control
T/C (endpoint: mean survival time, dose: 22.0 micrograms/kg/injection, schedule: Q02DX Z (ip), vehicle: water): 88 % of control
T/C (endpoint: mean survival time, dose: 23.0 micrograms/kg/injection, schedule: Q04DX002 (ip), vehicle: saline): 101 % of control and 90 % of control
T/C (endpoint: mean survival time, dose: 25.0 micrograms/kg/injection, schedule: Q01DX009 (ip), vehicle: saline): 99 % of control and 100 % of control
T/C (endpoint: mean survival time, dose: 33.0 micrograms/kg/injection, schedule: Q01DX Z (ip), vehicle: water): 91 % of control
T/C (endpoint: mean survival time, dose: 33.0 micrograms/kg/injection, schedule: Q02DX Z (ip), vehicle: water): 96 % of control
T/C (endpoint: mean survival time, dose: 45.0 micrograms/kg/injection, schedule: Q04DX002 (ip), vehicle: saline): 94 % of control and 103 % of control
T/C (endpoint: mean survival time, dose: 50.0 micrograms/kg/injection, schedule: Q01DX009 (ip), vehicle: saline): 103 % of control and 110 % of control
T/C (endpoint: mean survival time, dose: 50.0 micrograms/kg/injection, schedule: Q01DX Z (ip), vehicle: water): 88 % of control
T/C (endpoint: mean survival time, dose: 50.0 micrograms/kg/injection, schedule: Q02DX Z (ip), vehicle: water): 91 % of control
T/C (endpoint: mean survival time, dose: 62.5 micrograms/kg/injection, schedule: Q01DX Z (ip), vehicle: saline): 97 % of control
T/C (endpoint: mean survival time, dose: 75.0 micrograms/kg/injection, schedule: Q01DX Z (ip), vehicle: water): 91 % of control
T/C (endpoint: mean survival time, dose: 75.0 micrograms/kg/injection, schedule: Q02DX Z (ip), vehicle: water): 97 % of control
T/C (endpoint: mean survival time, dose: 90.0 micrograms/kg/injection, schedule: Q04DX002 (ip), vehicle: saline): 100 % of control and 106 % of control
T/C (endpoint: mean survival time, dose: 125.0 micrograms/kg/injection, schedule: Q01DX009 (ip), vehicle: clinical formulation): 103 % of control
T/C (endpoint: mean survival time, dose: 125.0 micrograms/kg/injection, schedule: Q01DX009 (ip), vehicle: saline): 105 % of control
T/C (endpoint: mean survival time, dose: 125.0 micrograms/kg/injection, schedule: Q01DX Z (ip), vehicle: saline): 107 % of control
T/C (endpoint: mean survival time, dose: 190.0 micrograms/kg/injection, schedule: Q04DX002 (ip), vehicle: saline): 87 % of control and 90 % of control
T/C (endpoint: mean survival time, dose: 250.0 micrograms/kg/injection, schedule: Q01DX009 (ip), vehicle: clinical formulation): 103 % of control
T/C (endpoint: mean survival time, dose: 250.0 micrograms/kg/injection, schedule: Q01DX009 (ip), vehicle: saline): 107 % of control
T/C (endpoint: mean survival time, dose: 250.0 micrograms/kg/injection, schedule: Q01DX Z (ip), vehicle: saline): 109 % of control
T/C (endpoint: mean survival time, dose: 370.0 micrograms/kg/injection, schedule: Q04DX002 (ip), vehicle: saline): 97 % of control and 103 % of control
T/C (endpoint: mean survival time, dose: 375.0 micrograms/kg/injection, schedule: Q01DX009 (ip), vehicle: saline): 108 % of control
T/C (endpoint: mean survival time, dose: 500.0 micrograms/kg/injection, schedule: Q01DX009 (ip), vehicle: clinical formulation): 108 % of control
T/C (endpoint: mean survival time, dose: 500.0 micrograms/kg/injection, schedule: Q01DX009 (ip), vehicle: saline): 113 % of control
T/C (endpoint: mean survival time, dose: 500.0 micrograms/kg/injection, schedule: Q01DX Z (ip), vehicle: saline): 113 % of control
T/C (endpoint: mean survival time, dose: 750.0 micrograms/kg/injection, schedule: Q01DX009 (ip), vehicle: saline): 108 % of control
T/C (endpoint: mean survival time, dose: 1000.0 micrograms/kg/injection, schedule: Q01DX009 (ip), vehicle: clinical formulation): 109 % of control
T/C (endpoint: mean survival time, dose: 1000.0 micrograms/kg/injection, schedule: Q01DX009 (ip), vehicle: saline): 114 % of control
T/C (endpoint: mean survival time, dose: 1500.0 micrograms/kg/injection, schedule: Q01DX009 (ip), vehicle: saline): 108 % of control
T/C (endpoint: mean survival time, dose: 3000.0 micrograms/kg/injection, schedule: Q01DX009 (ip), vehicle: saline): 113 % of control
T/C (endpoint: median survival time, dose: 0.25 mg/kg/injection, schedule: Q01DX009 (ip), vehicle: saline): 100 % of control and 111 % of control
T/C (endpoint: median survival time, dose: 0.5 mg/kg/injection, schedule: Q01DX009 (ip), vehicle: saline): 106 % of control and 122 % of control

Cc1cccc2c1CCC(OC(=O)c1cc([N+](=O)[O-])cc([N+](=O)[O-])c1)C2 (stereo not drawn)
T/C (endpoint: mean survival time, dose: 100.0 mg/kg/injection, schedule: Q01DX009 (ip), vehicle: saline with Tween-80): 86 % of control
T/C (endpoint: mean survival time, dose: 200.0 mg/kg/injection, schedule: Q01DX009 (ip), vehicle: saline with Tween-80): 169 % of control
T/C (endpoint: mean survival time, dose: 400.0 mg/kg/injection, schedule: Q01DX009 (ip), vehicle: saline with Tween-80): 95 % of control

CCOC(=O)C1C(=O)C=C(C)C(C(=O)OCC)C1c1ccc(N(C)C)cc1 (stereo not drawn)
T/C (endpoint: mean survival time, dose: 25.6 mg/kg/injection, schedule: Q04DX002 (ip), vehicle: saline with Tween-80): 92 % of control
T/C (endpoint: mean survival time, dose: 64.0 mg/kg/injection, schedule: Q04DX002 (ip), vehicle: saline with Tween-80): 96 % of control
T/C (endpoint: mean survival time, dose: 160.0 mg/kg/injection, schedule: Q04DX002 (ip), vehicle: saline with Tween-80): 92 % of control
T/C (endpoint: mean survival time, dose: 400.0 mg/kg/injection, schedule: Q04DX002 (ip), vehicle: saline with Tween-80): 103 % of control

CCCCCCCCCOc1ccc(C=O)cc1OC
T/C (endpoint: mean survival time, dose: 100.0 mg/kg/injection, schedule: Q01DX001 (ip), vehicle: Klucel (hydroxypropylcellulose) (HPC)): 93 % of control
T/C (endpoint: mean survival time, dose: 200.0 mg/kg/injection, schedule: Q01DX001 (ip), vehicle: Klucel (hydroxypropylcellulose) (HPC)): 102 % of control
T/C (endpoint: mean survival time, dose: 400.0 mg/kg/injection, schedule: Q01DX001 (ip), vehicle: Klucel (hydroxypropylcellulose) (HPC)): 100 % of control

CN/N=C/c1ccc([N+](=O)[O-])o1
T/C [1]: 97 % of control
T/C [2]: 88 % of control

N#Cc1ccc(OCc2nc(N)nc(N)c2-c2ccc(Cl)cc2)cc1
T/C [1]: 104 % of control
T/C [2]: 100 % of control

c1ccc(P(=NC2CCCC2)(c2ccccc2)c2ccccc2)cc1
T/C [1]: 89 % of control
T/C [2]: 92 % of control
T/C (endpoint: mean survival time, dose: 400.0 mg/kg/injection, schedule: Q04DX003 (ip), vehicle: saline with Tween-80): 87 % of control

C[C@]12C=CC(=O)C=C1CC[C@@H]1[C@@H]2[C@@H](O)C[C@@]2(C)[C@H]1CC[C@]2(O)C(=O)COC(=O)CCC(=O)O
T/C (endpoint: mean survival time, dose: 63.0 mg/kg/injection, schedule: Q01DX015 (sc), vehicle: steriod suspending solution): 106 % of control
T/C (endpoint: mean survival time, dose: 125.0 mg/kg/injection, schedule: Q01DX015 (sc), vehicle: steriod suspending solution): 106 % of control
T/C (endpoint: mean survival time, dose: 250.0 mg/kg/injection, schedule: Q01DX015 (sc), vehicle: steriod suspending solution): 96 % of control
T/C (endpoint: mean survival time, dose: 500.0 mg/kg/injection, schedule: Q01DX015 (sc), vehicle: steriod suspending solution): 108 % of control and 116 % of control
